Patent US20040192680A1, “Novel amides that activate soluble guanylate cyclase” (priority 2002, published 2004)

Target: T1, soluble guanylate cyclase (α1 and β1 subunits of guanylate cyclase, expressed in Sf9 cells) (Homo sapiens, UniProt Q02108+Q02153)
T1 construct: made in house; host or cells: Sf9 insect cells (baculovirus co-infection); high-speed supernatant used unpurified
T1 sequence (Q02108 1-690): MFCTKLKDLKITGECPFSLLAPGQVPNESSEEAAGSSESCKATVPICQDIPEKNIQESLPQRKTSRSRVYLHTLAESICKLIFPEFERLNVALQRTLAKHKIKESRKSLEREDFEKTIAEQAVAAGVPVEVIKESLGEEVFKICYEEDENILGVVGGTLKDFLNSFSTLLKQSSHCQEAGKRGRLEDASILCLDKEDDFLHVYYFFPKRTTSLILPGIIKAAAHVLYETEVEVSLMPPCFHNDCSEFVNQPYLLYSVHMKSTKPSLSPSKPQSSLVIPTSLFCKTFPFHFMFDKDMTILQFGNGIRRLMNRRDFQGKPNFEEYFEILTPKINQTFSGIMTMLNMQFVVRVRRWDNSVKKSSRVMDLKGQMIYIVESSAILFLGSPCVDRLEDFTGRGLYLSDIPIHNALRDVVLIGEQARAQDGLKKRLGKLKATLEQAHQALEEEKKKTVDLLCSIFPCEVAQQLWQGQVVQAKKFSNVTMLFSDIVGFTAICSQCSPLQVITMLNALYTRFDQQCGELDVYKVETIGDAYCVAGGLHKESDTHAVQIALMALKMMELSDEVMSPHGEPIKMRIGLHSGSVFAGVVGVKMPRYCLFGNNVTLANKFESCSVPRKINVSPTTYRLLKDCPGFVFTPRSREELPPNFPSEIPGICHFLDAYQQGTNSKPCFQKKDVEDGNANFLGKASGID
T1 sequence (Q02153 1-619): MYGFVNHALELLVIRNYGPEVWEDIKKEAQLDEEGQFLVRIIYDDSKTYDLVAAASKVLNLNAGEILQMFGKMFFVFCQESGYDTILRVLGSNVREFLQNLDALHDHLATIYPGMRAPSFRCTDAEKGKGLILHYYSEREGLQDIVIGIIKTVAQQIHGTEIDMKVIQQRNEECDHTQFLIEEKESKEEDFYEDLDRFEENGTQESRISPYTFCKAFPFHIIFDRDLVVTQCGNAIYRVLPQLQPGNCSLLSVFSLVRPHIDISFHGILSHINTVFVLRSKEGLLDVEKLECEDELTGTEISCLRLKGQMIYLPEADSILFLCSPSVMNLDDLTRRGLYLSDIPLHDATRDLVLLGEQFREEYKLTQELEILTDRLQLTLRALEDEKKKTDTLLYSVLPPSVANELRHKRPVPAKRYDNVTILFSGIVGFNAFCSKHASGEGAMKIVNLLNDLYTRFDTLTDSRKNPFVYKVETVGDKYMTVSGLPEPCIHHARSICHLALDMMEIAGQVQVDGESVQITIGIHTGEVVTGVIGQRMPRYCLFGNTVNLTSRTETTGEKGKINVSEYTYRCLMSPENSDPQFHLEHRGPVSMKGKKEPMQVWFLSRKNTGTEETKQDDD
Test: Guanylate Cyclase Assay (formation of cyclic GMP from GTP, with and without SNP)
Type: biochemical
Conditions: compound at 100 μM without SNP; normalized with the activity of 100 μM YC-1 (without SNP) as 100%
Method: Sf9 cells were cultured in Sf-90011 medium supplemented with 10% (v/v) fetal calf serum at 28° C. to give a count of 6×10^5 cells/ml. The cells were then infected with a mixture of the virus stocks for the α1 and β1 subunits of guanylate cyclase at a multiplicity of infection of 0.1 pfu/cell. The cells were harvested 72 hours after infection and were pelleted by centrifugation. The resulting cell pellets were homogenized with Polytron homogenizer in 3 volumes of 20 mM Tris-HCl (pH 7.6) containing 1 mM EDTA, 5 mM dithiothreitol, 90 mM NaCl, 10% glycerol, and protease inhibitors mix (Roche Molecular Biochemicals). The homogenate was centrifuged at 50,000×g for 60 minutes and the supernatant was aliquotted and stored at −80° C. […]
Guanylate cyclase activity was measured by the formation of cyclic GMP from GTP in a total volume of 100 μl. […] The solution was centrifuged at 3000 rpm for 15 minutes at room temperature and cyclic GMP in 20 μl of the resulting supernatant was measured according to the protocol of Amersham cyclic GMP enzymeimmunoassay system (purchased from Sigma, catalogue number RPN 226).
Compounds of the present invention were tested at 100 μM with and without 1 μM sodium nitro prusside (SNP). […] Mean basal efficacy, in Table 1, was expressed as a percentage of 100 μM YC-1 (without SNP). […]

SMILES: CC(O)CCNC(=O)/C=C/c1ccccc1Sc1ccc(Cl)cc1 (stereo not shown) [Example 38, (2E)-3-{2-[(4-chlorophenyl)thio]pheny}-N-(3-hydroxybutyl)acrylamide]
- Mean basal efficacy of compound alone at 100 μM, [%]: 60%
